Experimental data: patent US20250263416A1, “SPPL2a INHIBITORS” (Incyte Corporation, priority 2024, published 2025)
Entries after “also recorded” stand apart in the source; their conditions may differ.

Legend:
[1] = tested on: Collagen-Induced Arthritis (CIA) mouse model; assay: Collagen-induced arthritis (CIA) mouse model; type: in vivo, DBA-1 mice; settings: 50 mg/kg dose, compared to the vehicle
Source text: Female DBA-1 mice (8-9 weeks old) were used in the CIA mouse model. This model is widely used to evaluate efficacy of immunomodulatory drugs on autoimmune diseases, such as arthritis. DBA/1 mice develop collagen-induced arthritis (CIA) after immunization with bovine type II collagen emulsified in complete Freund's adjuvant (CFA), followed by a booster dose 21 days later. Both the immunizations were given subcutaneously, approximately 25 mm from the base of the tail on opposite sides. Immunizations were performed under a short duration isoflurane anesthesia. Mice were evaluated for the disease progression up to 45 days. […] Statistical significance was determined using Two-way ANOVA with multiple comparison tests to compare all groups to the vehicle.

[2] = In vivo epimerization and PK, statements covering all three preclinical models; parameters: species or system Sprague Dawley rats, beagle dogs, cynomolgus monkeys
Protocol: These factors may lead to accumulation and potenial toxicity. The effect on epimerization by substitution at the chiral carbon was tested by comparing Example A, Example 1, and Example 29 in the following preclinical in vivo pharmacokinetic models: Sprague Dawley rats, beagle dogs, and cynomolgus monkeys.
Two groups of male Sprague Dawley rats (n=3 each) received either a single 10 mg/kg PO dose of Example A or Example 1 in a vehicle consisting of 0.5% methylcellulose in water. Blood samples were collected at 0.25, 0.5, 1, 2, 4, and 6 hours postdose.
Male Sprague Dawley rats (n=3 each) received a single 3 mg/kg PO dose of Example 29 in a vehicle consisting of 5% dimethylacetamide (DMAC) in 50 mM citrate buffer w/0.5% methylcellulose. Blood samples were collected at predose, 0.25, 0.5, 1, 2, 4, 6, 8, 12, and 24 hours postdose.
(§1) Three groups of male cynomolgus monkeys (n=2 each) received either a single 3 mg/kg PO dose of Example A, Example 1, or Example 29 in a vehicle consisting of 5% dimethylacetamide (DMAC) in 50 mM citrate buffer w/0.5% methylcellulose. Blood samples were collected at predose, 0.25, 0.5, 1, 2, 3, 4, 6, 8, 12, and 24 hours postdose.
as §1, with “beagle dogs” for “cynomolgus monkeys”, “12, 24” for “12,”, “48” for “24”
All blood samples were collected using EDTA as the anticoagulant and centrifuged to obtain plasma. Plasma concentrations of Example A, Example 1, and their respective diastereomers were determined under non-GLP conditions using standard reverse phase LC-MS/MS bioanalytical methods. The individual plasma concentration-time data was used to determine the area under the curve (AUC) values using GraphPad Prism (v9.3.1).

[3] = tested on: experimental autoimmune encephalomyelitis (EAE) mouse model; assay: Experimental autoimmune encephalomyelitis (EAE) mouse model; type: in vivo, mice; settings: for disease score (EAE severity score): compared to vehicle
Protocol: The EAE model was used to evaluate the potential of SPPL2a inhibition in an in vivo mouse model of autoimmune disease. In this study, EAE was induced in female mice, aged 7-9 weeks, using an EAE induction kit (EK-2160, Hooke Labs) containing human recombinant MOG 1 125 antigen emulsified in CFA. EAE severity score was measured on a scale of 0-6 as per the IACUC approved protocol for 20 days. Mice were treated orally with the SPPL2a inhibitor Example A at 15 mg/kg and 30 mg/kg twice daily (first dose given on the same day prior to immunization). Animals were euthanized and tissues, plasma, and serum were collected for further analysis.
Anti-mouse MOG antibodies were measured in the serum of mice using quantitative ELISA kit (AS-55156, AnaSpec). […] All data is presented as mean+SEM. For comparison of more than two groups, ANOVA was used. All statistical analysis was performed using GraphPad Prism™ 10 or higher.

human SPPL2a = molecular target: T1, human SPPL2a (Homo sapiens, UniProt Q8TCT8); assay: Western blot assay of TNFα-GFP cleavage in U2OS cells expressing human SPPL2a; type: cell-based; settings: SPPL2a-U2OS reporter cells, 24 h
T1 construct: expressed in transfected cells; host or cells: U2OS (SPPL2a reporter cell line)
T1 sequence (Q8TCT8 26-520): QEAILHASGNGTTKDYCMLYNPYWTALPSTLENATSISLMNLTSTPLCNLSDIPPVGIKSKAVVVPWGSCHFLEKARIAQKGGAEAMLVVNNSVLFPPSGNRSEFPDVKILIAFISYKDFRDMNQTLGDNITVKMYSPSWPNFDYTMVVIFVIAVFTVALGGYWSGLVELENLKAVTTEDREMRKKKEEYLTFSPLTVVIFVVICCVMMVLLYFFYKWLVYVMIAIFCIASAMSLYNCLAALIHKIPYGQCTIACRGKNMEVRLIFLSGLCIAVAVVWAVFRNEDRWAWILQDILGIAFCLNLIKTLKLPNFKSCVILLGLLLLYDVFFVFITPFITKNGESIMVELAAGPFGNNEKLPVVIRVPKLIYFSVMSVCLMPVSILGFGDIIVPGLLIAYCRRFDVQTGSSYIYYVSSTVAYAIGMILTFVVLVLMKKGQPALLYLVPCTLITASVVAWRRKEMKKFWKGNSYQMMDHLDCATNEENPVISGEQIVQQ
Protocol: To confirm the cleavage of TNF-α in the U2OS cells that express human SPPL2a, a western blot assay was performed. The same cell line used for the imaging assays were used; these cells express human SPPL2a constitutively and an eGFP-labelled TNFα (aa 1-76) NTF substrate under a doxycycline promotor. In the presence of SPPL2a activity, TNFα-GFP is cleaved at the NTF, resulting in a single 54-56 kDa band (lower MW). If SPPL2a activity is inhibited, TNFα GFP processing is abrogated resulting in a higher molecular weight band (60-62 kDa; complete inhibition) and or both 54-56 kDa and 60-62 kDa bands (incomplete inhibition, smeared appearance) on the blot. Both Example 1 and Example A were added at indicated concentrations, and cells were incubated for 24 h with the inhibitors. Total cell lysated were prepared in ice cold-1X RIPA buffer containing protease inhibitor cocktail (AKR-190, Cell BioLabs). Lysates were collected and quantified for the total protein on NanoDrop using BCA kit (23227, Thermo Scientific). […] To detect cleaved and un-cleaved TNFα-GFP fragments, anti-GFP antibody (AF4240, R&D Biosystems) was used as a primary antibody and detected using anti-goat detection module (DM-006, ProteinSimple) according to the manufacturer's protocol. Data was analyzed using ProteinSimple compass software.

With `CNC(=O)c1nc(C)c(C(=O)NC[C@@H](C)C(=O)N[C@@H]2C(=O)N3CCCN3Cc3ccccc32)s1` [Example A, N^2,4-dimethyl-N^5—((R)-2-methyl-3-oxo-3-(((S)-11-oxo-2,3,10,11-tetrahydro-1H,5H-benzo[d]pyrazolo[1,2-a][1,2]diazepin-10-yl)amino)propyl)thiazole-2,5-dicarboxamide] the “clinical signs of CIA” value [1] was “significantly reduced”, the “in vivo epimerization at the chiral carbon in the 7-membered ring” value ([2]; rat, monkey and dog models, PO) was “exhibits epimerization in vivo; also recorded: observed in all three models” and the “exposures and PK (other than epimerization) across species” value ([2]; rats, monkeys, dogs) was “consistent”. The IgG2a level ([3]; 15 mg/kg) was “Trends to lower Ig titers”, the IgG2b level ([3]; 15 mg/kg) was “Trends to lower Ig titers” and the IgM level ([3]; 15 mg/kg) was “Trends to lower Ig titers”. The “disease score (EAE severity score)” value ([3]; 15 mg/kg orally twice daily) was “significant reduction”, the IgA ([3]; 30 mg/kg) was “lower total IgG1 and IgA trend” and the IgG2a titer ([3]; 30 mg/kg) was “Significant reduction”. For the same compound, the IgG2b titer ([3]; 30 mg/kg) was “Significant reduction”, the IgG3 titer ([3]; 30 mg/kg) was “Significant reduction” and the IgM titer ([3]; 30 mg/kg) was “Significant reduction”. For the same compound, the “total IgG1” value ([3]; 30 mg/kg) was “lower total IgG1 and IgA trend”, the “disease score (EAE severity score)” value ([3]; 30 mg/kg orally twice daily) was “significant reduction” and the “total Ig levels” value ([3]; EAE induced mice) was “significantly inhibited”. For the same compound, the “clinical signs of EAE” value ([3]; oral, twice daily, starting at day 13 of the treatment) was “significantly reduced”, the “anti-MOG antibodies in serum” value ([3]; quantitative ELISA) was “significant reduction” and the “TNFα-GFP cleavage inhibition (SPPL2a activity inhibition)” value (human SPPL2a) was “SPPL2a activity inhibition; also recorded: Comparable and significant TNFα-GFP cleavage inhibition”.
